SMILES strings stand for the structures.

What all share (type): biochemical
One assay deals with T1, HDAC2 (Homo sapiens, UniProt Q92769).
T1 construct: NM_001527; Cat. #50002) is full-length with C-terminal his tag; His (C); purchased BPS Biosciences 50002; host or cells: baculovirus infected Sf9 cells
Nature of the assay: HDAC enzyme activity assay (fluorogenic substrate), HDAC2. The following applies: recombinant enzyme; read-out: HDAC2 inhibition (IC50).

The target in the next assay is HDAC1 (Homo sapiens, UniProt Q13547). The experiment in a line: HDAC enzyme activity assay (fluorogenic substrate), HDAC1. The note with it: recombinant enzyme; read-out: HDAC1 inhibition (IC50).
Sequence of HDAC1 (Q13547 whole entry): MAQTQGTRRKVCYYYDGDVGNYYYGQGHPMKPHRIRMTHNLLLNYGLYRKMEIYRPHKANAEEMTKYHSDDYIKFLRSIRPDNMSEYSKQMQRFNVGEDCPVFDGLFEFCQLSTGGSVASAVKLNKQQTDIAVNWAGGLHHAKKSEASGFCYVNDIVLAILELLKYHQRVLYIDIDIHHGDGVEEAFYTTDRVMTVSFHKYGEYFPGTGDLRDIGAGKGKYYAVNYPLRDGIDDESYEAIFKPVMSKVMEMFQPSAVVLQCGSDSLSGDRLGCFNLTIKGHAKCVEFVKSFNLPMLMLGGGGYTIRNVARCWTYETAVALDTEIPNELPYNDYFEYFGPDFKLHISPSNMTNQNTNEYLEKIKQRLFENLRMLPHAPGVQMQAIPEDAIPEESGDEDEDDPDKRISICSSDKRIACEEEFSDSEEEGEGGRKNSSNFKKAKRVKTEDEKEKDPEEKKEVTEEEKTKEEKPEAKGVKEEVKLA
The target of a further assay is T2, HDAC6 (Homo sapiens, UniProt Q9UBN7).
T2 construct: BC069243; Cat. #50006) is full-length with N-terminal GST tag; GST (N); purchased BPS Biosciences 50006; host or cells: baculovirus infected Sf9 cells
T2 sequence (Q9UBN7 1-1215): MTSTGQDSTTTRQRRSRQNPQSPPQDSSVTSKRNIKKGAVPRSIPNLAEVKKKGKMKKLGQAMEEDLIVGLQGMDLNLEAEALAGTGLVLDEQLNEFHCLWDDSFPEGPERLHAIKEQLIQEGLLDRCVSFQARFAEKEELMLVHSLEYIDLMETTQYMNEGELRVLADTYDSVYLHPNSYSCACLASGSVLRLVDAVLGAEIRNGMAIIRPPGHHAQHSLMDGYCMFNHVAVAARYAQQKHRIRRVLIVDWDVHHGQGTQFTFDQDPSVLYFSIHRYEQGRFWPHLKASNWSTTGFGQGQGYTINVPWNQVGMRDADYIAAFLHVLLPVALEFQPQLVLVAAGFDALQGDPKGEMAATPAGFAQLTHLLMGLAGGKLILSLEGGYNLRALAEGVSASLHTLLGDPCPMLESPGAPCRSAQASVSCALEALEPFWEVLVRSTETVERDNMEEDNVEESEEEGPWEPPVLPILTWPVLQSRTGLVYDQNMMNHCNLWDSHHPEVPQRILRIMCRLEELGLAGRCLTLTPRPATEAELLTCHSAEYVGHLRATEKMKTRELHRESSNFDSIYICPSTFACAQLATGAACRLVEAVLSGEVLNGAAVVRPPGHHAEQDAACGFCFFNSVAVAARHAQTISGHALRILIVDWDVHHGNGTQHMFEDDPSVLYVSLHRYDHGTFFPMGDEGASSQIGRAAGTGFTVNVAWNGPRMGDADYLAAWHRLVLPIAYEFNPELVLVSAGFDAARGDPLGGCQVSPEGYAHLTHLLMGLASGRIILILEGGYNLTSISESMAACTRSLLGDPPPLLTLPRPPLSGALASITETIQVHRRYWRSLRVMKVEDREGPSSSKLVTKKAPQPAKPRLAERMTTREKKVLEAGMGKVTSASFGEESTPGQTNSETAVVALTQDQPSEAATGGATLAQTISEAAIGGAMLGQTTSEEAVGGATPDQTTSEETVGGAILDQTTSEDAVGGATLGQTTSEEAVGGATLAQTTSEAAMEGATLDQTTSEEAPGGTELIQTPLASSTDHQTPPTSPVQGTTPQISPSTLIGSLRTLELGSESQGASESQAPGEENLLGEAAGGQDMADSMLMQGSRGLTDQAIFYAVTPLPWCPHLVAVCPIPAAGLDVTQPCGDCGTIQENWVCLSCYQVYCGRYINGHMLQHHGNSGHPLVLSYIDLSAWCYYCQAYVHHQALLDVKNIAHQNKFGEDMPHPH
Nature of the assay: HDAC enzyme activity assay (fluorogenic substrate), HDAC6. The note with it: recombinant enzyme; read-out: HDAC6 inhibition (IC50).

A further assay addresses T3, PDE5A (Homo sapiens, UniProt O76074).
T3 construct: they are full-length with N-terminal GST tag; GST (N); purchased BPS Biosciences 60050; host or cells: baculovirus infected Sf9 cells
The experiment in a line: PDE enzyme activity assay (HTRF cGMP), PDE5A. The note with it: recombinant enzyme; read-out: PDE5A1 inhibition (IC50).

T1 sequence (Q92769 whole entry): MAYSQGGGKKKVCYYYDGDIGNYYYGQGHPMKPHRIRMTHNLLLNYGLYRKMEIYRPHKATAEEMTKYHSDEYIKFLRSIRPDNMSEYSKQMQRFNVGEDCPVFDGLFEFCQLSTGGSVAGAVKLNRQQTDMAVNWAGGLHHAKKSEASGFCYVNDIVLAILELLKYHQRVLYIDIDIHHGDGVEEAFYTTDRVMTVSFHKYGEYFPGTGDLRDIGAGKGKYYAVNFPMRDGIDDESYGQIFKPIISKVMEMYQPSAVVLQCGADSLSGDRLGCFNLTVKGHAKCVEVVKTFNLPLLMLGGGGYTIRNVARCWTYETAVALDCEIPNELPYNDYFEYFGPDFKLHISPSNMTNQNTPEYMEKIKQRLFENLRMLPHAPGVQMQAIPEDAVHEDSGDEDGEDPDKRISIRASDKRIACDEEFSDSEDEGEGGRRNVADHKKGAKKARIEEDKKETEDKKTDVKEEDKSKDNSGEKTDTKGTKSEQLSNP

`CCCc1nn(C)c2c(=O)[nH]c(-c3cc(CC4CC4C(=O)NO)ccc3OCC)nc12` (centres unmarked) [Example 1-86, 2-[[4-ethoxy-3-(1-methyl-7-oxo-3-propyl-6H-pyrazolo[4,3-d]pyrimidin-5-yl)phenyl]methyl]cyclopropanecarbohydroxamic acid]: the IC50 at HDAC2 was over 10000 nM; at HDAC1, 1000 to 10000 nM; on HDAC6, 1000 to 10000 nM; at PDE5A it was 10 to 1000 nM.

As to `CCCc1nn(C)c2c(=O)[nH]c(-c3cc(CC4CCN(C(=O)NO)CC4)ccc3OCC)nc12` [Example 1-49, 4-[[4-ethoxy-3-(1-methyl-7-oxo-3-propyl-6H-pyrazolo[4,3-d]pyrimidin-5-yl)phenyl]methyl]piperidine-1-carbohydroxamic acid], the IC50 was over 10000 nM on HDAC2, over 10000 nM on HDAC1, 1000 to 10000 nM at HDAC6 and 10 to 1000 nM at PDE5A.

Turning to `CCCc1nn(C)c2c(=O)[nH]c(-c3cc(N4CCC5(CCC(C(=O)NO)C5)CC4)ccc3OCC)nc12` (centres unmarked) [Example 1-56, 8-[4-ethoxy-3-(1-methyl-7-oxo-3-propyl-6H-pyrazolo[4,3-d]pyrimidin-5-yl)phenyl]-8-azaspiro[4.5]decane-3-carbohydroxamic acid], the IC50 on HDAC2 is over 10000 nM; at HDAC1, over 10000 nM; on HDAC6 it was 1000 to 10000 nM; on PDE5A it was 10 to 1000 nM.

Consider `CCCc1nn(C)c2c(=O)[nH]c(-c3cc(OC4CCC(C(=O)NO)CC4)ccc3OCC)nc12` (centres unmarked) [Example 1-53], for which the IC50 at HDAC2 fell in the range of 1000 to 10000 nM; at HDAC1 it was 1000 to 10000 nM; on HDAC6, 1000 to 10000 nM; at PDE5A, 10 to 1000 nM.

As to `CCCc1nn(C)c2c(=O)[nH]c(-c3cc(CC4CC(C(=O)NO)C4)ccc3OCC)nc12` (centres unmarked) [Example 1-62, 3-[[4-ethoxy-3-(1-methyl-7-oxo-3-propyl-6H-pyrazolo[4,3-d]pyrimidin-5 yl)phenyl]methyl]cyclobutanecarbohydroxamic acid], the IC50 at HDAC2, on HDAC1, at HDAC6 and on PDE5A was 10 to 1000 nM throughout.

`CCCc1nn(C)c2c(=O)[nH]c(-c3cc(NCC4CCN(c5ncc(C(=O)NO)cn5)CC4)ccc3OCC)nc12` [Example 1-23]: the IC50 on HDAC2, at HDAC1, on HDAC6 and on PDE5A was 10 to 1000 nM each time.

As for `CCCc1nn(C)c2c(=O)[nH]c(-c3cc(C4CCC(CC(=O)NO)CC4)ccc3OCC)nc12` (centres unmarked) [Example 1-51], the half-inhibitory concentration (IC50) is over 10000 nM at HDAC2, 1000 to 10000 nM on HDAC1, 1000 to 10000 nM at HDAC6 and 10 to 1000 nM at PDE5A.

As to `CCCc1nn(C)c2c(=O)[nH]c(-c3cc(N4CCC(C(=O)NO)CC4)ccc3OCC)nc12` [Example 1-35, 1-[4-ethoxy-3-(1-methyl-7-oxo-3-propyl-6H-pyrazolo[4,3-d]pyrimidin-5-yl)phenyl]piperidine-4-carbohydroxamic acid], the IC50 at HDAC2 was over 10000 nM; on HDAC1 it was 1000 to 10000 nM; on HDAC6 it was 1000 to 10000 nM; at PDE5A, 10 to 1000 nM.

Regarding `CCCc1nn(C)c2c(=O)[nH]c(-c3cc(Nc4ccc(C(=O)NO)cc4)ccc3OCC)nc12` [Example 1-21, 4-[4-ethoxy-3-(1-methyl-7-oxo-3-propyl-6H-pyrazolo[4,3-d]pyrimidin-5-yl)anilino]benzenecarbohydroxamic acid], the IC50 on HDAC2 was over 10000 nM; on HDAC1, 10 to 1000 nM; at HDAC6, 10 to 1000 nM; on PDE5A, under 10 nM.

On to `CCCc1nn(C)c2c(=O)[nH]c(-c3cc(C4CC(C(=O)NO)C4)ccc3OCC)nc12` (centres unmarked) [Example 1-84, 3-[4-ethoxy-3-(1-methyl-7-oxo-3-propyl-6H-pyrazolo[4,3-d]pyrimidin-5-yl)phenyl]cyclobutanecarbohydroxamic acid], for which the 50% inhibitory concentration (IC50) at HDAC2 lay within 1000 to 10000 nM; on HDAC1 it was 10 to 1000 nM; at HDAC6 it was 10 to 1000 nM; at PDE5A, 10 to 1000 nM.

In the case of `CCCc1nn(C)c2c(=O)[nH]c(-c3cc(C4=CCC(C(=O)NO)CC4)ccc3OCC)nc12` (centres unmarked) [Example 1-38, 4-[4-ethoxy-3-(1-methyl-7-oxo-3-propyl-6H-pyrazolo[4,3-d]pyrimidin-5-yl)phenyl]cyclohex-3-ene-1-carbohydroxamic acid], the IC50 on HDAC2 was over 10000 nM; on HDAC1 it was 1000 to 10000 nM; on HDAC6, 10 to 1000 nM; at PDE5A it was 10 to 1000 nM.

On to `CCCc1nn(C)c2c(=O)[nH]c(-c3cc(CC4CCC(CC(=O)NO)CC4)ccc3OCC)nc12` (racemic) [Example 1-43], for which the IC50 at HDAC2 was over 10000 nM; on HDAC1, 1000 to 10000 nM; at HDAC6, 10 to 1000 nM; on PDE5A it was 10 to 1000 nM.

As for `CCCc1nn(C)c2c(=O)[nH]c(-c3cc(C4=CCC(CC(=O)NO)CC4)ccc3OCC)nc12` (centres unmarked) [Example 1-42], the IC50 is over 10000 nM on HDAC2, 1000 to 10000 nM at HDAC1, 10 to 1000 nM at HDAC6 and 10 to 1000 nM at PDE5A.

For the molecule `CCCc1nn(C)c2c(=O)[nH]c(-c3cc(N4CCC5(CC5C(=O)NO)C4)ccc3OCC)nc12` (centres unmarked) [Example 1-67], the 50% inhibitory concentration (IC50) is over 10000 nM at HDAC2, over 10000 nM on HDAC1, over 10000 nM at HDAC6 and 10 to 1000 nM on PDE5A.

In the case of `CCCc1nn(C)c2c(=O)[nH]c(-c3cc(Cc4ccc(C(=O)NO)c(F)c4)ccc3OCC)nc12` [Example 1-66], the IC50 at HDAC2 was over 10000 nM; on HDAC1, 1000 to 10000 nM; on HDAC6, 10 to 1000 nM; on PDE5A, 10 to 1000 nM.

For `CCCc1nn(C)c2c(=O)[nH]c(-c3cc(NCCC(=O)NO)ccc3OCC)nc12` [Example 1-33, 3-[4-ethoxy-3-(1-methyl-7-oxo-3-propyl-6H-pyrazolo[4,3-d]pyrimidin-5-yl)anilino]propanehydroxamic acid], the half-inhibitory concentration (IC50) at HDAC2 is over 10000 nM; on HDAC1 it was 1000 to 10000 nM; on HDAC6, over 10000 nM; at PDE5A, 10 to 1000 nM.

`CCCc1nn(C)c2c(=O)[nH]c(-c3cc(Cc4ccc(/C=C/C(=O)NO)cc4)ccc3OCC)nc12` [Example 1-59]: the IC50 is over 10000 nM on HDAC2, 1000 to 10000 nM at HDAC1, 1000 to 10000 nM at HDAC6 and 10 to 1000 nM at PDE5A.

On to `CCCc1nn(C)c2c(=O)[nH]c(-c3cc(N4CCC5(CCCN(c6ncc(C(=O)NO)cn6)C5)C4)ccc3OCC)nc12` (centres unmarked) [Example 1-70], for which the IC50 was 1000 to 10000 nM on HDAC2, 10 to 1000 nM at HDAC1, 1000 to 10000 nM at HDAC6 and 10 to 1000 nM on PDE5A.

For the molecule `CCCc1nn(C)c2c(=O)[nH]c(-c3cc(C4CCC(C(=O)NO)CC4)ccc3OCC)nc12` (centres unmarked) [Example 1-41, 4-[4-ethoxy-3-(1-methyl-7-oxo-3-propyl-6H-pyrazolo[4,3-d]pyrimidin-5-yl)phenyl]cyclohexanecarbohydroxamic acid], the IC50 on HDAC2 was over 10000 nM; on HDAC1, over 10000 nM; at HDAC6, 1000 to 10000 nM; at PDE5A, 10 to 1000 nM.

Consider `CCCc1nn(C)c2c(=O)[nH]c(-c3cc(C(=O)NO)ccc3OCC)nc12` [Example 1-27, 4-ethoxy-3-(1-methyl-7-oxo-3-propyl-6H-pyrazolo[4,3-d]pyrimidin-5-yl)benzenecarbohydroxamic acid], for which the IC50 at HDAC2 is over 10000 nM; on HDAC1, 1000 to 10000 nM; at HDAC6 it was over 10000 nM; on PDE5A, under 10 nM.

For the origin of these results see patent US9573956B2, “Compounds as dual inhibitors of phosphodiesterases and histone deacetylases” (FUNDACIÓN PARA LA INVESTIGACIÓN MÉDICA APLICADA, priority 2013, dated 2017).
